Laboratory results from the supplement of paper PMC11208160.

assay: recombinant UMI read abundance after kanamycin selection (control-corrected) (log10(CPM+1)); higher = more efficient recombination; extreme values may be limits of the assay; sequences stand for … in AGTGCAGAGAAAATCGGCCAGTTTTCTCTGCCTGCAGTCCGCATGCCGTGGGACCCCTTGGGTTCTAACCTGTTGCCTAGATTTATGCAGCGGACTGCCTTTCTCCCAAAGTGATAAACCGG…AGGTTGGTTTCACT; site = the 11-nt donor
Procedure, shortened: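 Sequencing read counts were converted to CPM, averaged over two replicates and scaled by control-derived factors. Results are given as log10(CPM+1). The reads covered the donor–target junction of recombinant UMIs from a pooled Escherichia coli screen of donor and donor-binding-loop pairs for the IS621 bridge recombinase.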
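Also: IS621 bridge recombinase in Escherichia coli cells against a fixed T5 target plasmid.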

First: GGTACGTCATGGACCGGTTTTCCCGGTAATCCGTATTTGTT (site GGTACGTCTAA)
Second: GGTACGTCATGGACCGGTTTTCCCGGTAATCCGTATTTGTT (site GGTACGTCTAC)
The “recombinant UMI read abundance (log10)” value of the first is higher: 0.31 for the first, 0 for the second.

“GGTACGTCATGGACCGGTTTTCCCGGTAATCCGTATTTGTT (site GGTACGTCTAG)” and “GGTACGTCATGGACCGGTTTTCCCGGTAATCCGTATTTGTT (site GGTACGTCTAT)” are the same in “recombinant UMI read abundance (log10)” value: 0 for the first, 0 for the second.

“GGTACGTCATGGACCGGTTTTCCCGGTAATCCGTATTTGTT (site GGTACGTCTCA)” and “GGTACGTCATGGACCGGTTTTCCCGGTAATCCGTATTTGTT (site GGTACGTCTGA)” are within 0.2 log units of each other in “recombinant UMI read abundance (log10)” value: 0.0191 for the first, 0 for the second.

“GGTACGTCATGGACCGGTTTTCCCGGTAATCCGTATTTGTT (site GGTACGTCTTA)” and “GGTACGTCATGGACCGGTTTTCCCGGTAATCCGTATTTGTT (site GGTACTTCTAA)” are within 0.2 log units of each other in “recombinant UMI read abundance (log10)” value: 0.0065 for the first, 0 for the second.

“GGTACGTCATGGACCGGTTTTCCCGGTAATCCGTATTTGTT (site GGTAGGTCTAA)” and “GGTACGTCATGGACCGGTTTTCCCGGTAATCCGTATTTGTT (site GGTATGTCTAA)” are within 0.2 log units of each other in “recombinant UMI read abundance (log10)” value: 0.00929 for the first, 0.00457 for the second.

“GGTACGTCATGGACCGGTTTTCCCGGTAATCCGTATTTGTT (site GGTCCGTCTAA)” and “GGTACGTCATGGACCGGTTTTCCCGGTAATCCGTATTTGTT (site GGTGCGTCTAA)” are within 0.2 log units of each other in “recombinant UMI read abundance (log10)” value: 0.0113 for the first, 0.00982 for the second.

“GGTACGTCATGGACCGGTTTTCCCGGTAATCCGTATTTGTT (site GGTTCGTCTAA)” and “GGTACGTCATGGACCGGTTTTCCCGGTAATCCGTATTTGTT (site GTTACGTCTAA)” are within 0.2 log units of each other in “recombinant UMI read abundance (log10)” value: 0 for the first, 0.0263 for the second.

Compared with “GGTACGTCATGGACCGGTTTTCCCGGTAATCCGTATTTGTT (site TGTACGTCTAA)”, “GGTACTTCATGGACCGGTTTTCCCGGTAATCCGTATTTGAT (site GGTACTTCTAT)” is higher in “recombinant UMI read abundance (log10)” value: 0.0329 for the first, 0.4 for the second.

“GGTAGAACATGGACCGGTTTTCCCGGTAATCCGTATTTGTA (site GGTAGAACTTA)” and “GGTAGCGCATGGACCGGTTTTCCCGGTAATCCGTATTTGTT (site GGTAGCGCTAA)” are within 0.2 log units of each other in “recombinant UMI read abundance (log10)” value: 1.39 for the first, 1.5 for the second.

Compared with “GGTCAAACATGGACCGGTTTTCCCGGTAATCCGTATTTGTA (site GGTCAAACTTA)”, “GGTCAAACATGGACCGGTTTTCCCGGTAATCCGTATTTGTA (site GGTCCAACTTA)” is lower in “recombinant UMI read abundance (log10)” value: 0.645 for the first, 0.0193 for the second.

“GGTCAAACATGGACCGGTTTTCCCGGTAATCCGTATTTGTA (site GGTCGAACTTA)” and “GGTCAAACATGGACCGGTTTTCCCGGTAATCCGTATTTGTA (site GGTCTAACTTA)” are within 0.2 log units of each other in “recombinant UMI read abundance (log10)” value: 0.00424 for the first, 0.0103 for the second.

First: GGTCACGCATGGACCGGTTTTCCCGGTAATCCGTATTTGTC (site GGTCACGCTGA)
Second: GGTCAGTCATGGACCGGTTTTCCCGGTAATCCGTATTTGGA (site GGTCAGTCTTC)
The “recombinant UMI read abundance (log10)” value of the first is higher: 2.56 for the first, 0.503 for the second.

“GGTCCAACATGGACCGGTTTTCCCGGTAATCCGTATTTGAT (site GGTCCAACTAT)” and “GGTCCAACATGGACCGGTTTTCCCGGTAATCCGTATTTGGA (site GGTCCAACTTA)” are within 0.2 log units of each other in “recombinant UMI read abundance (log10)” value: 0 for the first, 0.00455 for the second.

“GGTCCAACATGGACCGGTTTTCCCGGTAATCCGTATTTGGA (site GGTCCAACTTC)” and “GGTCCAACATGGACCGGTTTTCCCGGTAATCCGTATTTGGA (site GGTCCAACTTG)” are within 0.2 log units of each other in “recombinant UMI read abundance (log10)” value: 0.0919 for the first, 0.0106 for the second.

“GGTCCAACATGGACCGGTTTTCCCGGTAATCCGTATTTGGA (site GGTCCAACTTT)” and “GGTCCAACATGGACCGGTTTTCCCGGTAATCCGTATTTGTC (site GGTCCAACTAA)” are within 0.2 log units of each other in “recombinant UMI read abundance (log10)” value: 0.00506 for the first, 0.015 for the second.

“GGTCCAACATGGACCGGTTTTCCCGGTAATCCGTATTTGTC (site GGTCCAACTCA)” and “GGTCCAACATGGACCGGTTTTCCCGGTAATCCGTATTTGTC (site GGTCCAACTGA)” are within 0.2 log units of each other in “recombinant UMI read abundance (log10)” value: 0.00327 for the first, 0 for the second.

“GGTCCAACATGGACCGGTTTTCCCGGTAATCCGTATTTGTC (site GGTCCAACTTA)” and “GGTCCACCATGGACCGGTTTTCCCGGTAATCCGTATTTGTA (site GGTCCAACTTA)” are within 0.2 log units of each other in “recombinant UMI read abundance (log10)” value: 0.035 for the first, 0.0242 for the second.

“GGTCCACCATGGACCGGTTTTCCCGGTAATCCGTATTTGTA (site GGTCCACCTTA)” and “GGTCCACCATGGACCGGTTTTCCCGGTAATCCGTATTTGTA (site GGTCCAGCTTA)” are within 0.2 log units of each other in “recombinant UMI read abundance (log10)” value: 0.0126 for the first, 0.0357 for the second.

Going from “GGTCCACCATGGACCGGTTTTCCCGGTAATCCGTATTTGTA (site GGTCCATCTTA)” to “GGTCCAGCATGGACCGGTTTTCCCGGTAATCCGTATTTGAA (site GGTCCAGCTTT)”, the “recombinant UMI read abundance (log10)” value rises from 0.0355 to 0.307.

“GGTCCAGCATGGACCGGTTTTCCCGGTAATCCGTATTTGTA (site GGTCCAACTTA)” and “GGTCCAGCATGGACCGGTTTTCCCGGTAATCCGTATTTGTA (site GGTCCACCTTA)” are within 0.2 log units of each other in “recombinant UMI read abundance (log10)” value: 0 for the first, 0.00451 for the second.

Compared with “GGTCCAGCATGGACCGGTTTTCCCGGTAATCCGTATTTGTA (site GGTCCAGCTTA)”, “GGTCCAGCATGGACCGGTTTTCCCGGTAATCCGTATTTGTA (site GGTCCATCTTA)” is lower in “recombinant UMI read abundance (log10)” value: 1.56 for the first, 0.0161 for the second.

“GGTCCGTCATGGACCGGTTTTCCCGGTAATCCGTATTTGTT (site GGTACGTCTAA)” and “GGTCCGTCATGGACCGGTTTTCCCGGTAATCCGTATTTGTT (site GGTCCGTCTAA)” are within 0.2 log units of each other in “recombinant UMI read abundance (log10)” value: 0.00692 for the first, 0.00423 for the second.

“GGTCCGTCATGGACCGGTTTTCCCGGTAATCCGTATTTGTT (site GGTGCGTCTAA)” and “GGTCCGTCATGGACCGGTTTTCCCGGTAATCCGTATTTGTT (site GGTTCGTCTAA)” are within 0.2 log units of each other in “recombinant UMI read abundance (log10)” value: 0.0122 for the first, 0.0141 for the second.

“GGTCGAACATGGACCGGTTTTCCCGGTAATCCGTATTTGTA (site GGTCAAACTTA)” and “GGTCGAACATGGACCGGTTTTCCCGGTAATCCGTATTTGTA (site GGTCCAACTTA)” are within 0.2 log units of each other in “recombinant UMI read abundance (log10)” value: 0.0946 for the first, 0.00781 for the second.

Compared with “GGTCGAACATGGACCGGTTTTCCCGGTAATCCGTATTTGTA (site GGTCGAACTTA)”, “GGTCGAACATGGACCGGTTTTCCCGGTAATCCGTATTTGTA (site GGTCTAACTTA)” is lower in “recombinant UMI read abundance (log10)” value: 0.761 for the first, 0.00734 for the second.

First: GGTGACCCATGGACCGGTTTTCCCGGTAATCCGTATTTGCA (site GGTGACCCTTG)
Second: GGTGCAGCATGGACCGGTTTTCCCGGTAATCCGTATTTGGA (site GGTGCAGCTTC)
The “recombinant UMI read abundance (log10)” value of the first is higher: 0.706 for the first, 0.0152 for the second.

“GGTGCCACATGGACCGGTTTTCCCGGTAATCCGTATTTGGT (site GGTGCCACTAC)” and “GGTGCGACATGGACCGGTTTTCCCGGTAATCCGTATTTGTT (site GGTGCGACTAA)” are within 0.2 log units of each other in “recombinant UMI read abundance (log10)” value: 0.406 for the first, 0.345 for the second.

First: GGTGCTACATGGACCGGTTTTCCCGGTAATCCGTATTTGGA (site GGTGCTACTTC)
Second: GGTGGTCCATGGACCGGTTTTCCCGGTAATCCGTATTTGCC (site GGTGGTCCTGG)
The “recombinant UMI read abundance (log10)” value of the first is higher: 0.449 for the first, 0 for the second.

First: GGTGTCCCATGGACCGGTTTTCCCGGTAATCCGTATTTGAA (site GGTGTCCCTTT)
Second: GGTGTGGCATGGACCGGTTTTCCCGGTAATCCGTATTTGTT (site GGTGTGGCTAA)
The “recombinant UMI read abundance (log10)” value of the first is lower: 0.0114 for the first, 0.894 for the second.

Going from “GGTGTTTCATGGACCGGTTTTCCCGGTAATCCGTATTTGGT (site GGTGTTTCTAC)” to “GGTTAAACATGGACCGGTTTTCCCGGTAATCCGTATTTGGT (site GGTTAAACTAC)”, the “recombinant UMI read abundance (log10)” value falls from 0.556 to 0.137.

First: GGTTAGGCATGGACCGGTTTTCCCGGTAATCCGTATTTGAG (site GGTTAGGCTCT)
Second: GGTTATCCATGGACCGGTTTTCCCGGTAATCCGTATTTGCT (site GATTATCCTAG)
The “recombinant UMI read abundance (log10)” value of the first is higher: 0.952 for the first, 0 for the second.

“GGTTATCCATGGACCGGTTTTCCCGGTAATCCGTATTTGCT (site GCTTATCCTAG)” and “GGTTATCCATGGACCGGTTTTCCCGGTAATCCGTATTTGCT (site GGTTATCCTAG)” are within 0.2 log units of each other in “recombinant UMI read abundance (log10)” value: 0.196 for the first, 0 for the second.

“GGTTATCCATGGACCGGTTTTCCCGGTAATCCGTATTTGCT (site GTTTATCCTAG)” and “GGTTCGCCATGGACCGGTTTTCCCGGTAATCCGTATTTGCG (site GGTTCGCCTCG)” are the same in “recombinant UMI read abundance (log10)” value: 0 for the first, 0 for the second.

“GGTTGCCCATGGACCGGTTTTCCCGGTAATCCGTATTTGAT (site GATTGCCCTAT)” and “GGTTGCCCATGGACCGGTTTTCCCGGTAATCCGTATTTGAT (site GCTTGCCCTAT)” are within 0.2 log units of each other in “recombinant UMI read abundance (log10)” value: 0.0175 for the first, 0.0066 for the second.

“GGTTGCCCATGGACCGGTTTTCCCGGTAATCCGTATTTGAT (site GGTTGCCCTAT)” and “GGTTGCCCATGGACCGGTTTTCCCGGTAATCCGTATTTGAT (site GTTTGCCCTAT)” are within 0.2 log units of each other in “recombinant UMI read abundance (log10)” value: 0.0592 for the first, 0.0119 for the second.

Going from “GGTTTACCATGGACCGGTTTTCCCGGTAATCCGTATTTGGG (site GGTTTACCTCC)” to “GTAAAAGCATGGACCGGTTTTCCCGGTAATCCGTATTTGCC (site GTAAAAGCTGG)”, the “recombinant UMI read abundance (log10)” value rises from 0.0308 to 1.27.

Compared with “GTAAAGTCATGGACCGGTTTTCCCGGTAATCCGTATTTGCA (site GTAAAGTCTTG)”, “GTAACTCCATGGACCGGTTTTCCCGGTAATCCGTATTTGTC (site GTAACTCCTGA)” is lower in “recombinant UMI read abundance (log10)” value: 2.95 for the first, 1.71 for the second.

For “GTAAGAACATGGACCGGTTTTCCCGGTAATCCGTATTTGGC (site GTAAGAACTGC)”, the “recombinant UMI read abundance (log10)” value was 2.33.
